The record followed here is patent publication US20250144223A1, “PROTEIN DEGRADATION COMPOUND BASED ON NAMPT TARGET PROTEIN AND APPLICATION THEREOF” (GLUETACS THERAPEUTICS (SHANGHAI) CO., LTD., priority 2021, published 2025).

The IC50 is the concentration that gives 50% inhibition. The low end stands for higher potency, the high end for lower potency.

This assay deals with Jurkat. The assay can be described thus: CellTiter-Glo Luminescent Cell Viability Assay, half inhibitory concentration (IC50) on tumor cell proliferation. The settings on record: Homo sapiens, Jurkat cells, 72 h treatment. The assay is classed as cell-based. The procedure, abridged: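 Jurkat cells seeded at 20,000 cells/well in serum-containing RPMI1640, treated after 24 h with serially diluted compound for 72 h at 37 °C, 5% CO2. Viability read by CellTiter-Glo luminescence; IC50 calculated from growth-inhibition curves.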
(In ATP-based viability assays light output follows the ATP content of the culture.)
`O=C(/C=C/c1cccnc1)NCCCCC1CCN(C(=O)c2ccc(N3CCN(C(=O)CCCCCCNc4cccc5c4CN(C4CCC(=O)NC4=O)C5=O)CC3)cc2)CC1` (stereo not shown) [SIAIS632018, (E)-N-(4-(1-(4-(4-(7-((2-(2,6-dioxopiperidin-3-yl)-1-oxoisoindolin-4-yl)amino)heptanoyl)piperazin-1-yl)benzoyl)piperidin-4-yl)butyl)-3-(pyridin-3-yl)acrylamide] gave an IC50 of 0.0555 µM.

Regarding `O=C(/C=C/c1cccnc1)NCCCCC1CCN(C(=O)c2ccc(N3CCN(C(=O)CSc4cccc5c4C(=O)N(C4CCC(=O)NC4=O)C5=O)CC3)cc2)CC1` (stereo not shown) [SIAIS632027, (E)-N-(4-(1-(4-(4-(2-((2-(2,6-dioxopiperidin-3-yl)-1,3-dioxoisoindolin-4-yl)thio)acetyl)piperazin-1-yl)benzoyl)piperidin-4-yl)butyl)-3-(pyridin-3-yl)acrylamide], inhibition was half-maximal at 0.294 µM (IC50).

In turn, `O=C(/C=C/c1cccnc1)NCCCCC1CCN(C(=O)c2ccc(N3CCN(C(=O)CCSc4cccc5c4C(=O)N(C4CCC(=O)NC4=O)C5=O)CC3)cc2)CC1` (stereo not shown) [SIAIS632028, (E)-N-(4-(1-(4-(4-(3-((2-(2,6-dioxopiperidin-3-yl)-1,3-dioxoisoindolin-4-yl)thio)propanoyl)piperazin-1-yl)benzoyl)piperidin-4-yl)butyl)-3-(pyridin-3-yl)acrylamide] showed an IC50 of 0.105 µM.

On to `O=C(/C=C/c1cccnc1)NCCCCC1CCN(C(=O)c2ccc(N3CCN(C(=O)CCCCSc4cccc5c4C(=O)N(C4CCC(=O)NC4=O)C5=O)CC3)cc2)CC1` (stereo not shown) [SIAIS632029, (E)-N-(4-(1-(4-(4-(5-((2-(2,6-dioxopiperidin-3-yl)-1,3-dioxoisoindolin-4-yl)thio)pentanoyl)piperazin-1-yl)benzoyl)piperidin-4-yl)butyl)-3-(pyridin-3-yl)acrylamide], for which the IC50 turned out to be 0.0287 µM.

`O=C(/C=C/c1cccnc1)NCCCCC1CCN(C(=O)c2ccc(N3CCN(C(=O)CCCCCSc4cccc5c4C(=O)N(C4CCC(=O)NC4=O)C5=O)CC3)cc2)CC1` (stereo not shown) [SIAIS632030, (E)-N-(4-(1-(4-(4-(6-((2-(2,6-dioxopiperidin-3-yl)-1,3-dioxoisoindolin-4-yl)thio)hexanoyl)piperazin-1-yl)benzoyl)piperidin-4-yl)butyl)-3-(pyridin-3-yl)acrylamide] yielded an IC50 of 0.011 µM.

For the compound `O=C(/C=C/c1cccnc1)NCCCCC1CCN(C(=O)c2ccc(N3CCN(C(=O)CCCCCCSc4cccc5c4C(=O)N(C4CCC(=O)NC4=O)C5=O)CC3)cc2)CC1` (stereo not shown) [SIAIS632031, (E)-N-(4-(1-(4-(4-(7-((2-(2,6-dioxopiperidin-3-yl)-1,3-dioxoisoindolin-4-yl)thio)heptanoyl)piperazin-1-yl)benzoyl)piperidin-4-yl)butyl)-3-(pyridin-3-yl)acrylamide], the IC50 is 0.0244 µM.

`O=C(/C=C/c1cccnc1)NCCCCC1CCN(C(=O)c2ccc(N3CCN(C(=O)CCCCCCCSc4cccc5c4C(=O)N(C4CCC(=O)NC4=O)C5=O)CC3)cc2)CC1` (stereo not shown) [SIAIS632032, (E)-N-(4-(1-(4-(4-(8-((2-(2,6-dioxopiperidin-3-yl)-1,3-dioxoisoindolin-4-yl)thio)octanoyl)piperazin-1-yl)benzoyl)piperidin-4-yl)butyl)-3-(pyridin-3-yl)acrylamide]: the IC50 came to 0.192 µM.

On to `O=C(/C=C/c1cccnc1)NCCCCC1CCN(C(=O)c2ccc(N3CCN(C(=O)COc4cccc5c4C(=O)N(C4CCC(=O)NC4=O)C5=O)CC3)cc2)CC1` (stereo not shown) [SIAIS632033, (E)-N-(4-(1-(4-(4-(2-((2-(2,6-dioxopiperidin-3-yl)-1,3-dioxoisoindolin-4-yl)oxy)acetyl)piperazin-1-yl)benzoyl)piperidin-4-yl)butyl)-3-(pyridin-3-yl)acrylamide], for which the IC50 was 0.0787 µM.

In turn, `O=C(/C=C/c1cccnc1)NCCCCC1CCN(C(=O)c2ccc(N3CCN(C(=O)CCCCOc4cccc5c4C(=O)N(C4CCC(=O)NC4=O)C5=O)CC3)cc2)CC1` (stereo not shown) [SIAIS632034, (E)-N-(4-(1-(4-(4-(5-((2-(2,6-dioxopiperidin-3-yl)-1,3-dioxoisoindolin-4-yl)oxy)pentanoyl)piperazin-1-yl)benzoyl)piperidin-4-yl)butyl)-3-(pyridin-3-yl)acrylamide] returned an IC50 of 0.0951 µM.

In turn, `O=C(/C=C/c1cccnc1)NCCCCC1CCN(C(=O)c2ccc(N3CCN(C(=O)CCCCCOc4cccc5c4C(=O)N(C4CCC(=O)NC4=O)C5=O)CC3)cc2)CC1` (stereo not shown) [SIAIS632035, (E)-N-(4-(1-(4-(4-(6-((2-(2,6-dioxopiperidin-3-yl)-1,3-dioxoisoindolin-4-yl)oxy)hexanoyl)piperazin-1-yl)benzoyl)piperidin-4-yl)butyl)-3-(pyridin-3-yl)acrylamide] gave an IC50 of 0.00852 µM.

`O=C(/C=C/c1cccnc1)NCCCCC1CCN(C(=O)c2ccc(N3CCN(C(=O)CCCCCCOc4cccc5c4C(=O)N(C4CCC(=O)NC4=O)C5=O)CC3)cc2)CC1` (stereo not shown) [SIAIS632036, (E)-N-(4-(1-(4-(4-(7-((2-(2,6-dioxopiperidin-3-yl)-1,3-dioxoisoindolin-4-yl)oxy)heptanoyl)piperazin-1-yl)benzoyl)piperidin-4-yl)butyl)-3-(pyridin-3-yl)acrylamide] came in with an IC50 of 0.0293 µM.

`O=C(/C=C/c1cccnc1)NCCCCC1CCN(C(=O)c2ccc(N3CCN(CCCCCC#Cc4cccc5c4CN(C4CCC(=O)NC4=O)C5=O)CC3)nc2)CC1` (stereo not shown) [SIAIS632039, (E)-N-(4-(1-(6-(4-(7-(2-(2,6-dioxopiperidin-3-yl)-1-oxoisoindolin-4-yl)hept-6-yn-1-yl)piperazin-1-yl)nicotinoyl)piperidin-4-yl)butyl)-3-(pyridin-3-yl)acrylamide] returned an IC50 of 0.00275 µM.

Compound `O=C(/C=C/c1cccnc1)NCCCCC1CCN(C(=O)c2ccc(N3CCN(CCCCCCC#Cc4cccc5c4CN(C4CCC(=O)NC4=O)C5=O)CC3)nc2)CC1` (stereo not shown) [SIAIS632040, (E)-N-(4-(1-(6-(4-(8-(2-(2,6-dioxopiperidin-3-yl)-1-oxoisoindolin-4-yl)oct-7-yn-1-yl)piperazin-1-yl)nicotinoyl)piperidin-4-yl)butyl)-3-(pyridin-3-yl)acrylamide] returned an IC50 of 0.00568 µM.

As for `O=C(/C=C/c1cccnc1)NCCCCC1CCN(C(=O)c2ccc(N3CCN(CCCCSc4cccc5c4CN(C4CCC(=O)NC4=O)C5=O)CC3)nc2)CC1` (stereo not shown) [SIAIS632041, (E)-N-(4-(1-(6-(4-(4-((2-(2,6-dioxopiperidin-3-yl)-1-oxoisoindolin-4-yl)thio)butyl)piperazin-1-yl)nicotinoyl)piperidin-4-yl)butyl)-3-(pyridin-3-yl)acrylamide], the IC50 came to 0.00103 µM.

Compound `Cc1ncsc1-c1ccc(CNC(=O)[C@@H]2C[C@@H](O)CN2C(=O)[C@@H](NC(=O)CCCCC(=O)N2CCN(C3CCN(c4ccc(C(=O)N5CCC(CCCCNC(=O)/C=C/c6cccnc6)CC5)nn4)CC3)CC2)C(C)(C)C)cc1` [SIAIS633063, (2S,4R)-1-((S)-3,3-dimethyl-2-(6-oxo-6-(4-(1-(6-(4-(4-((E)-3-(pyridin-3-yl)acrylamido)butyl)piperidine-1-carbonyl)pyridazin-3-yl)piperidin-4-yl)piperazin-1-yl)hexanamido)butanoyl)-4-hydroxy-N-(4-(4-methylthiazol-5-yl)benzyl)pyrrolidine-2-carboxamide] came in with an IC50 of 0.255 µM.

In turn, `O=C(/C=C/c1cccnc1)NCCCCC1CCN(C(=O)c2ccc(N3CCC(N4CCN(CCCCCC#Cc5cccc6c5CN(C5CCC(=O)NC5=O)C6=O)CC4)CC3)nc2)CC1` (stereo not shown) [SIAIS633093, (E)-N-(4-(1-(6-(4-(4-(7-(2-(2,6-dioxopiperidin-3-yl)-1-oxoisoindolin-4-yl)hept-6-yn-1-yl)piperazin-1-yl)piperidin-1-yl)nicotinoyl)piperidin-4-yl)butyl)-3-(pyridin-3-yl)acrylamide] gave an IC50 of 0.0158 µM.

Compound `O=C(/C=C/c1cccnc1)NCCCCC1CCN(C(=O)c2ccc(N3CCC(N4CCN(CCCCCCC#Cc5cccc6c5CN(C5CCC(=O)NC5=O)C6=O)CC4)CC3)nc2)CC1` (stereo not shown) [SIAIS633094, (E)-N-(4-(1-(6-(4-(4-(8-(2-(2,6-dioxopiperidin-3-yl)-1-oxoisoindolin-4-yl)oct-7-yn-1-yl)piperazin-1-yl)piperidin-1-yl)nicotinoyl)piperidin-4-yl)butyl)-3-(pyridin-3-yl)acrylamide] yielded an IC50 of 0.00618 µM.

On to `O=C(/C=C/c1cccnc1)NCCCCC1CCN(C(=O)c2ccc(N3CCN(CCCCCCOc4cccc5c4CN(C4CCC(=O)NC4=O)C5=O)CC3)cc2)CC1` (stereo not shown) [SIAIS633097, (E)-N-(4-(1-(4-(4-(6-((2-(2,6-dioxopiperidin-3-yl)-1-oxoisoindolin-4-yl)oxy)hexyl)piperazin-1-yl)benzoyl)piperidin-4-yl)butyl)-3-(pyridin-3-yl)acrylamide], for which half-maximal inhibition (IC50) was put at 0.079 µM.

Consider `O=C(/C=C/c1cccnc1)NCCCCC1CCN(C(=O)c2ccc(N3CCN(CCCCCCCOc4cccc5c4CN(C4CCC(=O)NC4=O)C5=O)CC3)cc2)CC1` (stereo not shown) [SIAIS633098, (E)-N-(4-(1-(4-(4-(7-((2-(2,6-dioxopiperidin-3-yl)-1-oxoisoindolin-4-yl)oxy)heptyl)piperazin-1-yl)benzoyl)piperidin-4-yl)butyl)-3-(pyridin-3-yl)acrylamide], for which the IC50 was 0.0339 µM.
